Measurements reported in patent US11246961B2, “Engineered scaffolds for vascularized tissue repair” (The Regents of the University of California, priority 2016, dated 2022).
“Also recorded” adds a separate entry of the source.

What was measured:
HMVECs = test: on-bead whole cell binding assay, HMVECs; type: cell-based, human; settings: 10 minutes, 30 minutes or 2 hours
Text: (§1) Human coronary artery endothelial cells (HCAECs) were purchased from ATCC. Human cardiac microvascular endothelial cells (HMVECs) were purchased from Lonza. THP-1 monocytes were obtained from Dr. Pamela Lein (University of California, Davis). The myeloid leukemia K562 cells that have been transfected with human integrin αvβ3 gene (αvβ3-K562 cells) were provided by Dr. Yoshikazu Takada and the K562 cells transfected with human integrin αIIbβ3 gene (αIIb3-K562 cells) were provided Dr. Jennifer Cochran (Stanford University)
(§2) HECFCs, HCAECs, HMVECs and THP-1 monocytes were cultured in their respective growth medium as described in Example 1. For cell bead-binding assay, 6×10^5 HECFCs, HCAECs, HMVECs or THP-1 monocytes in 2 mL of their respective culture medium were added to an ultra-low attachment 35-mm petri dish (Corning Incorporated) followed by resin beads (Lam et al. (1991) Nature 354:82). The dishes were incubated in a shaking incubator at 37° C., 5% CO2 for various time points at 40 rpm. For platelet bead-binding assay, the platelets isolated as described in Example 1 were added to an ultra-low attachment 35-mm petri dish and incubated with the resin beads in the shaking incubator as described for the cell-bead binding assy. Phase contrast images were taken at different time points using an Olympus IX81 microscope. […]

THP-1 monocytes = test: on-bead whole cell binding assay, THP-1 monocytes; type: cell-based; settings: 10 minutes, 30 minutes or 2 hours
Text: as §1, §2

HCAECs = test: MTS assay of EC proliferation on LXW7; type: cell-based, human; settings: vs D-biotin treated surface; up to 5 days
Description: The 96-well plates from Example 3 were treated with 1 μM Avidin solution for 1 hour at room temperature. Avidin coated wells were rinsed three times with DPBS and treated with LXW7-bio (1 μM), with D-biotin (1 μM) serving as the control. After 1 hour, the wells were washed three times with DPBS and blocked with 1% BSA for 1 hour. 3×10^3 viable HCAECs were seeded per well and cultured in EGM-2 media for 5 days. MTS assay was performed at each day as per the manufacturer instructions (Interchim) and analyzed on SpectraMax-3 plate reader (Molecular Devices).

VEGFR-2 = test: mRNA level of VEGFR-2 on EPCs; type: cell-based; settings: EPCs treated with LXW7
Description: FIG. 15 presents graphs of mRNA levels of VEGFR-2 (A) and EGFR (B) on EPCs after treating with different concentrations of LXW7 for 48 h. *P<0.05 vs. Control, #P<0.05 vs. 25 nM (n=10 per group).

cGRGDdvc [LXW7]
attachment of HMVECs to beads displaying LXW7 (HMVECs): efficiently supported attachment of EPCs/ECs from different sources; also recorded: efficiently supported EPC/EC attachment
attachment of THP-1 monocytes to beads displaying LXW7 (THP-1 monocytes): did not support effective attachment of THP-1 monocytes
EC proliferation on LXW7 treated surface (MTS) (HCAECs): significantly promoted EC proliferation after 48 hours in culture
VEGFR2 mRNA level (VEGFR-2): increases in VEGFR2 and EGFR mRNA levels were found to be dependent on treatment time
